Data reported in US11033539B2, “Compounds of formulas (VII), (VIII), (IX), (XI), (XII), (XIII), and (XIV) as muscarinic receptor 4(M4) antagonists for treating neurological diseases” (Neurocrine Biosciences, Inc., priority 2015, dated 2021).

What follows are compounds tested against human M4 receptor (Homo sapiens (Human), UniProt P08173) (assay: Radioligand (tritiated N-methylscopolamine) binding assay, M4). Settings: Ki against the M4 receptor; membranes from CHO cells expressing human M4; tritiated N-methylscopolamine 1.5 nM; read-out: Ki.
In short: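 Membranes from CHO cells expressing the receptor were incubated with 1.5 nM radioligand and twelve compound concentrations (10 μM to […]) for 90 min at 37 °C in 50 mM HEPES, 100 mM NaCl, 5 mM MgCl2, 1 mM EDTA, pH 7.4. Bound radioligand was collected by filtration and counted, and Ki was derived from inhibition.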

Chain of human M4 receptor (P08173 whole entry): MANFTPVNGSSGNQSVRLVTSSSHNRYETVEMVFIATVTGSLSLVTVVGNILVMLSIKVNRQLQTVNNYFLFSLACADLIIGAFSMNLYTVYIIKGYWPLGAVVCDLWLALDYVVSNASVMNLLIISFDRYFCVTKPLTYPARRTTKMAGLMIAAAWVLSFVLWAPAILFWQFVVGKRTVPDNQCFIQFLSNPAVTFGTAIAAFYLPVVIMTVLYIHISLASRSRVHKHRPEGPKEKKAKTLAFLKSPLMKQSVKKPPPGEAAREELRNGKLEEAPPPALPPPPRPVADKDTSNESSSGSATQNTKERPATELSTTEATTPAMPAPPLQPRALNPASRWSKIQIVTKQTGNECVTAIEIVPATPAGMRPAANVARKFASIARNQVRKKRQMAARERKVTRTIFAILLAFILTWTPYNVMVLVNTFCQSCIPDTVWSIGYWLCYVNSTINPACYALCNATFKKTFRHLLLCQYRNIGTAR

**Q.** With `Cc1cncc(N2CCN(C(=O)NCCC3CCN(Cc4ccccc4)CC3)[C@H](C)C2)c1` [4-63, (2R)-N-[2-(1-benzylpiperidin-4-yl)ethyl]-2-methyl-4-(5-methylpyridin-3-yl)piperazine-1-carboxamide] as the compound, how does the Ki read?
**A.** Its Ki is 0.1 to 1 µM.

**Q.** For `C[C@@H]1CN(c2ncc(C#N)cc2F)C[C@H](C)N1C(=O)NCCC1CCN(Cc2ccccc2)CC1` [4-78, (2S,6R)-N-[2-(1-benzylpiperidin-4-yl)ethyl]-4-(5-cyano-3-fluoropyridin-2-yl)-2,6-dimethylpiperazine-1-carboxamide], which Ki is on record?
**A.** Its Ki is 0.01 to 0.1 µM.

**Q.** For `C[C@@H]1CN(c2cc(F)c(F)c(F)c2)CCN1C(=O)NCCN1CCC(O)(Cc2ccccc2)CC1` [7-7, (2R)-N-[2-(4-benzyl-4-hydroxypiperidin-1-yl)ethyl]-2-methyl-4-(3,4,5-trifluorophenyl)piperazine-1-carboxamide], which Ki is on record?
**A.** The Ki was 0.1 to 1 µM.

**Q.** With `C[C@@H]1CN(c2cc(F)c(F)c(F)c2)CCN1C(=O)NCCC1CCN(Cc2cc(F)ccc2F)CC1` [6-25, (2R)-N-(2-{1-[(2,5-difluorophenyl)methyl]piperidin-4-yl}ethyl)-2-methyl-4-(3,4,5-trifluorophenyl)piperazine-1-carboxamide] as the compound, how does the Ki read?
**A.** The Ki was 0.1 to 1 µM.

**Q.** How did the Ki turn out when `C[C@@H]1CN(c2cnc(C(F)(F)F)nc2)C[C@H](C)N1C(=O)NCCC1CCN(CCc2ccccc2)CC1` [6-56, (2R,6S)-2,6-dimethyl-N-{2-[1-(2-phenylethyl)piperidin-4-yl]ethyl}-4-[2-(trifluoromethyl)pyrimidin-5-yl]piperazine-1-carboxamide] was run?
**A.** The Ki was 0.01 to 0.1 µM.

**Q.** `Cc1c(C(=O)NCCC2CCN(Cc3ccccc3)CC2)cnc2cc(-c3ccnc(F)c3)nn12` [18-20] was tested. Which Ki did it give?
**A.** The Ki was 0.01 to 0.1 µM.

**Q.** How did the Ki turn out when `Nc1nc(N2CCN(C(=O)NCCC3CCN(Cc4ccccc4)CC3)CC2)ncc1F` [5-34, 4-(4-amino-5-fluoropyrimidin-2-yl)-N-[2-(1-benzylpiperidin-4-yl)ethyl]piperazine-1-carboxamide] was run?
**A.** Its Ki is 0.1 to 1 µM.

**Q.** Which Ki does the source give for `C[C@@H]1CN(c2ccnc(F)c2)CCN1C(=O)NCCC1CCN(Cc2ccccc2)CC1` [22-18] here?
**A.** The Ki was 0.01 to 0.1 µM.

**Q.** Which Ki does the source give for `COc1cc(N2CCN(C(=O)NCCC3CCN(Cc4ccccc4)CC3)[C@H](C)C2)ccc1C#N` [22-28, (2R)-N-[2-(1-benzylpiperidin-4-yl)ethyl]-4-(4-cyano-3-methoxyphenyl)-2-methylpiperazine-1-carboxamide] here?
**A.** The Ki was 0.01 to 0.1 µM.

**Q.** For `C[C@@H]1CN(c2ccc(OC(F)(F)F)c(C#N)c2)CCN1C(=O)NCCN1CCN(Cc2ccccc2)CC1` [7-3, (2R)-N-[2-(4-benzylpiperazin-1-yl)ethyl]-4-[3-cyano-4-(trifluoromethoxy)phenyl]-2-methylpiperazine-1-carboxamide], which Ki is on record?
**A.** The Ki was 0.01 to 0.1 µM.

**Q.** Which Ki does the source give for `CN(CCNC(=O)C1CCN(c2cccc(OC(F)(F)F)c2)CC1)[C@@H]1CCN(Cc2ccccc2)C1` [9-22, N-(2-{[(3R)-1-benzylpyrrolidin-3-yl](methyl)amino}ethyl)-1-[3-(trifluoromethoxy)phenyl]piperidine-4-carboxamide] here?
**A.** The Ki was 0.01 to 0.1 µM.

**Q.** With `C[C@@H]1CN(c2ncc(C(=O)O)cn2)CCN1C(=O)NCCC1CCN(Cc2ccccc2)CC1` [5-2, 2-[(3R)-4-{[2-(1-benzylpiperidin-4-yl)ethyl]carbamoyl}-3-methylpiperazin-1-yl]pyrimidine-5-carboxylic acid] as the compound, how does the Ki read?
**A.** Its Ki is 0.1 to 1 µM.

**Q.** How did the Ki turn out when `C[C@@H]1CN(c2ccc(F)cn2)CCN1C(=O)NCCC1CCN(Cc2ccccc2)CC1` [4-46, (2R)-N-[2-(1-benzylpiperidin-4-yl)ethyl]-4-(5-fluoropyridin-2-yl)-2-methylpiperazine-1-carboxamide] was run?
**A.** The Ki was 0.01 to 0.1 µM.

**Q.** `N#Cc1cc(OC(F)(F)F)cc(N2CCC(O)(C(=O)NCCC3CCN(Cc4ccccc4)CC3)CC2)c1` [10-46, N-[2-(1-benzylpiperidin-4-yl)ethyl]-1-[3-cyano-5-(trifluoromethoxy)phenyl]-4-hydroxypiperidine-4-carboxamide] was tested. Which Ki did it give?
**A.** Its Ki is 0.01 to 0.1 µM.

**Q.** Which Ki does the source give for `O=C(Cc1ccc(OCc2ccccc2)cc1)NCCC1CCN(Cc2ccccc2)CC1` [9-43, 2-[4-(benzyloxy)phenyl]-N-[2-(1-benzylpiperidin-4-yl)ethyl]acetamide] here?
**A.** The Ki was 0.1 to 1 µM.

**Q.** `CN(C(=O)NCCC1CCN(Cc2ccccc2)CC1)C1CCN(c2ncc(C(F)(F)F)cc2Cl)C1` (centres unmarked) [8-16, 1-[2-(1-benzylpiperidin-4-yl)ethyl]-3-{1-[3-chloro-5-(trifluoromethyl)pyridin-2-yl]pyrrolidin-3-yl}-3-methylurea] was tested. Which Ki did it give?
**A.** Its Ki is 0.01 to 0.1 µM.

**Q.** With `C[C@@H]1CN(c2ncc(F)c(C#N)n2)CCN1C(=O)NCCC1CCN(Cc2ccccc2)CC1` [4-55, (2R)-N-[2-(1-benzylpiperidin-4-yl)ethyl]-4-(4-cyano-5-fluoropyrimidin-2-yl)-2-methylpiperazine-1-carboxamide] as the compound, how does the Ki read?
**A.** The Ki was 0.1 to 1 µM.

**Q.** For `CN(CCNC(=O)C1CCN(c2ccc(OC(F)(F)F)cc2)CC1)[C@H]1CCN(Cc2ccccc2)C1` [9-17, N-(2-{[(3S)-1-benzylpyrrolidin-3-yl](methyl)amino}ethyl)-1-[4-(trifluoromethoxy)phenyl]piperidine-4-carboxamide], which Ki is on record?
**A.** Its Ki is 0.01 to 0.1 µM.

**Q.** “N-(2-{1-[(4-hydroxyphenyl)methyl]piperidin-4-yl}ethyl)-4-phenoxybenzamide [11-10]” was tested. Which Ki did it give?
**A.** Its Ki is 0.1 to 1 µM.

**Q.** Which Ki does the source give for `COc1ccc(-c2cc3ncc(C(=O)NCCC4CCN(Cc5ccccc5)CC4)c(C)n3n2)cc1` [9-51, N-[2-(1-benzylpiperidin-4-yl)ethyl]-2-(4-methoxyphenyl)-7-methylpyrazolo[1,5-a]pyrimidine-6-carboxamide] here?
**A.** The Ki was 0.1 to 1 µM.

**Q.** Which Ki does the source give for `O=C(NCCC1CCN(Cc2ccccc2)CC1)C1CCN(c2ccc(OC(F)(F)F)cc2F)CC1` [10-37, N-[2-(1-benzylpiperidin-4-yl)ethyl]-1-[2-fluoro-4-(trifluoromethoxy)phenyl]piperidine-4-carboxamide] here?
**A.** The Ki was 0.01 to 0.1 µM.

**Q.** For `COC1(C(=O)NCCC2CCN(Cc3ccccc3)CC2)CCN(c2ccc(C(F)(F)F)cn2)CC1` [10-48, N-[2-(1-benzylpiperidin-4-yl)ethyl]-4-methoxy-1-[5-(trifluoromethyl)pyridin-2-yl]piperidine-4-carboxamide], which Ki is on record?
**A.** Its Ki is 0.1 to 1 µM.

**Q.** `N#Cc1cnc(N2CCN(C(=O)NCCC3CCN(Cc4ccccc4)CC3)[C@@H](CO)C2)nc1` [5-26, (2R)-N-[2-(1-benzylpiperidin-4-yl)ethyl]-4-(5-cyanopyrimidin-2-yl)-2-(hydroxymethyl)piperazine-1-carboxamide] was tested. Which Ki did it give?
**A.** Its Ki is 0.1 to 1 µM.

**Q.** How did the Ki turn out when `C[C@@H]1CN(c2cnc(C#N)cn2)C[C@H](C)N1C(=O)NCCC1CCN(Cc2ccccc2)CC1` [23-2, (2R,6S)-N-[2-(1-benzylpiperidin-4-yl)ethyl]-4-(5-cyanopyrazin-2-yl)-2,6-dimethylpiperazine-1-carboxamide] was run?
**A.** Its Ki is 0.01 to 0.1 µM.

**Q.** `N#Cc1ccc(-c2ccc(C(=O)NCCC3CCN(Cc4ccccc4)CC3)cc2)cc1` [9-30, N-[2-(1-benzylpiperidin-4-yl)ethyl]-4-(4-cyanophenyl)benzamide] was tested. Which Ki did it give?
**A.** Its Ki is 0.01 to 0.1 µM.

**Q.** How did the Ki turn out when `O=C(CCC1CCN(Cc2ccccc2)CC1)NC1CCN(c2cccc(OC(F)(F)F)c2)CC1` [9-50, 3-(1-benzylpiperidin-4-yl)-N-{1-[3-(trifluoromethoxy)phenyl]piperidin-4-yl}propanamide] was run?
**A.** The Ki was 0.1 to 1 µM.

**Q.** Which Ki does the source give for `O=C(NCCC1CCN(Cc2ccccc2)CC1)C1CCN(c2ccccc2)CC1` [10-3, N-[2-(1-benzylpiperidin-4-yl)ethyl]-1-phenylpiperidine-4-carboxamide] here?
**A.** The Ki was 0.1 to 1 µM.

**Q.** How did the Ki turn out when `C[C@@H]1CN(c2cncc(C#N)c2)CCN1C(=O)NCCC1CCN(Cc2ccccc2)CC1` [4-23, (2R)-N-[2-(1-benzylpiperidin-4-yl)ethyl]-4-(5-cyanopyridin-3-yl)-2-methylpiperazine-1-carboxamide] was run?
**A.** The Ki was 0.1 to 1 µM.

**Q.** `C[C@@H]1CN(c2cc(F)c(F)c(F)c2)CCN1C(=O)NCCC1CCN(Cc2csnn2)CC1` [6-8, (2R)-2-methyl-N-{2-[1-(1,2,3-thiadiazol-4-ylmethyl)piperidin-4-yl]ethyl}-4-(3,4,5-trifluorophenyl)piperazine-1-carboxamide] was tested. Which Ki did it give?
**A.** Its Ki is 0.01 to 0.1 µM.

**Q.** `O=C(NCCN[C@@H]1CCN(Cc2ccccc2)C1)C1CCN(c2ccc(OC(F)(F)F)c(F)c2)CC1` [9-28, N-(2-{[(3R)-1-benzylpyrrolidin-3-yl]amino}ethyl)-1-[3-fluoro-4-(trifluoromethoxy)phenyl]piperidine-4-carboxamide] was tested. Which Ki did it give?
**A.** The Ki was 0.01 to 0.1 µM.

**Q.** `N#Cc1cccc(N2CCC(NC(=O)OCCC3CCN(Cc4ccccc4)CC3)CC2)c1` [12-5, 2-(1-benzylpiperidin-4-yl)ethyl N-[1-(3-cyanophenyl)piperidin-4-yl]carbamate] was tested. Which Ki did it give?
**A.** Its Ki is 0.1 to 1 µM.

**Q.** How did the Ki turn out when `N#Cc1ccc(N2CCC(C(=O)NCCC3CCN(Cc4ccccc4)CC3)CC2)cc1` [9-29, N-[2-(1-benzylpiperidin-4-yl)ethyl]-1-(4-cyanophenyl)piperidine-4-carboxamide] was run?
**A.** Its Ki is 0.01 to 0.1 µM.

**Q.** `C[C@@H]1CN(c2ncc(C(=O)NC3CCC3)cn2)C[C@H](C)N1C(=O)NCCC1CCN(Cc2ccccc2)CC1` [27-6] was tested. Which Ki did it give?
**A.** Its Ki is 0.1 to 1 µM.

**Q.** `COc1cc(C)c(-c2cc3ncc(C(=O)NCCC4CCN(Cc5ccccc5)CC4)c(C)n3n2)cn1` [18-19] was tested. Which Ki did it give?
**A.** Its Ki is 0.1 to 1 µM.

**Q.** With `O=C(NCCC1CCN(Cc2ccccc2)CC1)N1CCN(c2cccc(C(F)(F)F)c2)CC1` [8-17, N-[2-(1-benzylpiperidin-4-yl)ethyl]-4-[3-(trifluoromethyl)phenyl]piperazine-1-carboxamide] as the compound, how does the Ki read?
**A.** Its Ki is 0.01 to 0.1 µM.

**Q.** `C[C@@H]1CN(c2ccc(F)c(C#N)c2)CCN1C(=O)N(C)C[C@@H](O)C1CCN(Cc2ccccc2)CC1` [3-3, (2R)-N-[(2S)-2-(1-benzylpiperidin-4-yl)-2-hydroxyethyl]-4-(3-cyano-4-fluorophenyl)-N,2-dimethylpiperazine-1-carboxamide] was tested. Which Ki did it give?
**A.** Its Ki is 0.1 to 1 µM.

**Q.** Which Ki does the source give for `Cc1c(C(=O)NCCC2CCN(Cc3ccccc3)CC2)cnc2cc(-c3ccccc3)nn12` [17-2, N-[2-(1-benzylpiperidin-4-yl)ethyl]-7-methyl-2-phenylpyrazolo[1,5-a]pyrimidine-6-carboxamide] here?
**A.** The Ki was 0.1 to 1 µM.

**Q.** For `C[C@@H]1CN(c2ccccc2F)CCN1C(=O)NCCC1CCN(Cc2ccccc2)CC1` [4-49, (2R)-N-[2-(1-benzylpiperidin-4-yl)ethyl]-4-(2-fluorophenyl)-2-methylpiperazine-1-carboxamide], which Ki is on record?
**A.** The Ki was 0.1 to 1 µM.
